How the values were obtained:
histamine H2 -receptors [1] = target: T1, histamine H2 -receptors (Rattus norvegicus, UniProt P25102); assay: In vivo antisecretory activity on histamine-induced gastric secretion of acid (stomach-perfused rat); settings: iv, histamine 1 mg/kg/hr, values expressed as base, read-out: ED50, inhibition of histamine-induced gastric secretion
T1 construct: intravenous or intraduodenal administration in stomach-perfused rats; from tissue; host or cells: stomach of the anesthetized living rat (in vivo)
T1 sequence (P25102 whole entry, the tested form may be a part): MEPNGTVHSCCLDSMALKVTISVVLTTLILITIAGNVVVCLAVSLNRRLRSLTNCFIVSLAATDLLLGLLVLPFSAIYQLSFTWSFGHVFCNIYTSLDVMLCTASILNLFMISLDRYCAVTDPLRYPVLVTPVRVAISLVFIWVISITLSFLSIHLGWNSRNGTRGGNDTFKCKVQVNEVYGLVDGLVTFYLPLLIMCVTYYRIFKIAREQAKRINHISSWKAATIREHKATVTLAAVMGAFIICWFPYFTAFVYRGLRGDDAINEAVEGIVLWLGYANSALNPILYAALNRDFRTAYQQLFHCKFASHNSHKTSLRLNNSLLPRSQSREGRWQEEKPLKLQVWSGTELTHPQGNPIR
From the text: The ability of the test compounds to inhibit histamine-induced gastric secretion of acid was investigated after intravenous or intraduodenal administration in stomach-perfused rats, according to Gosh and Schild, Br. J. Pharmacol. Chemother. 13, 54, (1958).
The preparation of the animals under general anesthesia (urethane, 1 g/kg i.p.) and constant temperature, was achieved by inserting and tying in place polyethyl tubes (PE 50) in the esophagus and in the pyloricantral region. After the stomach was washed to remove residual of foods, continuous perfusion of the stomach was started with saline, 0.5 ml/min. (37° C.), primed by a Jobling peristaltic pump. After 30 minutes of perfusion adaptation, the stomach perfusate was collected in 30 min. samples, and titrated for acid content, expressed as μEq of NaOH 1N. As control acid output became constant, intravenous perfusion of histamine (1 mg/kg/hr) was started and maintained throughout the experimental period. After the acid secretion had reached the steadily higher level, increasing doses of the test compounds were injected intravenously in order to obtain dose-response functions. The ED50 was then calculated by standard procedure.

histamine H2 -receptors [2] = target: T2, histamine H2 -receptors (Cavia porcellus, UniProt P47747); assay: In vitro inhibition of histamine-induced tachycardia (positive chronotropic effect) in isolated guinea pig atria; settings: Krebs-Henseleit pH 7.4, 32° C., histamine 10^-6 g/ml, 30 min contact
T2 construct: isolated guinea pig atria suspended in an organ bath; from tissue; host or cells: isolated guinea pig atria
T2 sequence (P47747 whole entry): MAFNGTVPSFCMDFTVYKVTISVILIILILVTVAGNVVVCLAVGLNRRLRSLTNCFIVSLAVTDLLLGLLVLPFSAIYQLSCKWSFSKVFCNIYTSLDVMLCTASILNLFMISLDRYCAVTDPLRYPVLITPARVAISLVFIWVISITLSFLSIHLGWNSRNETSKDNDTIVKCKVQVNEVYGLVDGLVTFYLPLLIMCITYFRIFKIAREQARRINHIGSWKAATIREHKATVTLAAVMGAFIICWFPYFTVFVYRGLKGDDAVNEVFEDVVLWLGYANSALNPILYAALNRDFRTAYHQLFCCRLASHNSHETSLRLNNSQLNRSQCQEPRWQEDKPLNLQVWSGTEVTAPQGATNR
Protocol: The myocardial preparation, loaded with 1 gm isometric tension, was allowed to stabilize 60 minutes, and myocardial contractions were recorded through an isometric lever connected to a strain-gauge coupler, and the instantaneous rate was monitored with a cardiotachometer and a heat-writing pen recorder. After two control responses to histamine (10^-6 g/ml) the test compound was added to the bath at the desired final concentration and left for 30 minutes before the atria were again challenged with histamine. The chronotropic obtained in the presence of the antagonist was then compared to the control response to histamine, and the percent reduction of the histamine H2 -evoked response was calculated. […] 3, Smooth muscle, Ed. Daniel, E. E. Paton, M., Plenum Press, New York (1975); Ash and Schild, Br. J.Pharmacol. Chemother. 27, 427-439, 1966.

Swiss mice = assay: Acute toxicity, single oral dose in Swiss mice; format: in vivo; settings: 500 mg/kg, fasted 18 hours, mortality at 14 days, values expressed as base
Protocol: The acute toxicity of the particularly preferred compounds of the formula I was approximately determined by oral administration of a single dose to groups of 5 Swiss mice, fasted for 18 hours before the test. The evaluation of the incidence of mortality was considered 14 days after the administration. The results are shown in the following table, in which the values are expressed taking the compound as a base.

H2 -receptor = settings: in vitro, literature; cited from earlier work
gastric acid secretion = settings: cited from earlier work; for inhibition of gastric acid secretion relative to cimetidine: in vivo, literature

SMILES	ED50 (histamine H2 -receptors [1]) [mg/kg]	EC50 (histamine H2 -receptors [2]) [nM]	No. Dead/No. Treated Mice (Swiss mice)	H2 -receptor antagonist potency relative to cimetidine (H2 -receptor)	inhibition of gastric acid secretion relative to cimetidine (gastric acid secretion)	effect on gastric acid secretion (gastric acid secretion; literature (Black et al.))
CCNC=Nc1cccc(-c2nsc(NC(=N)N)n2)c1 [14(ap), N-Ethyl-N'-[3-(5-guanidino-1,2,4-thiadiazol-3-yl)-phenyl]-formamidine]	0.051	450	0/5	–	–	–
CCCCNC=Nc1cccc(-c2csc(N=C(N)N)n2)c1 [14(d), N-Butyl-N'-[3-(2-quanidino-4-thiazolyl)-phenyl]-formamidine]	0.073	550	4/5	–	–	–
N=C(N)Nc1nc(-c2cccc(N=CNCCCO)c2)cs1 [14(s), N-(3-Hydroxy-propyl)-N'-[3-(2-guanidino-4-thiazolyl)-phenyl]-formamidine]	0.028	270	0/5	–	–	–
CNC(=NCCSCc1csc(N=C(N)N)n1)NC#N [tiotidine]	–	–	–	more potent than cimetidine	more potent than cimetidine	–
CCNC=Nc1cccc(-c2csc(NC(=N)N)n2)c1 [14(a), N-Ethyl-N'-[3-(2-guanidino-4-thiazolyl)phenyl]-formamidine]	0.013	530	0/5	–	–	–
C=CCNC=Nc1cccc(-c2csc(NC(=N)N)n2)c1 [14(j), N-Allyl-N'-[3-(2-guanidino-4-thiazolyl)-phenyl]-formamidine]	0.02	330	0/5	–	–	–
COCCNC=Nc1cccc(-c2csc(NC(=N)N)n2)c1 [14(p), N-(2-Methoxy-ethyl)-N'-[3-(2-guanidino-4-thiazolyl)-phenyl]-formamidine]	0.05	480	0/5	–	–	–
CNC(=C[N+](=O)[O-])NCCSCc1ccc(CN(C)C)o1 [ranitidine]	–	–	–	more potent than cimetidine	more potent than cimetidine	–
CCC(C)NC=Nc1cccc(-c2csc(NC(=N)N)n2)c1 (centres unmarked) [14(e), N-sec.Butyl-N'-[3-(2-guanidino-4-thiazolyl)-phenyl]-formamidine]	0.041	300	0/5	–	–	–
CN/C=N/c1cccc(-c2csc(N=C(N)N)n2)c1 [Example 14, N-Methyl-N'-[3-(2-guanidino-4-thiazolyl)-phenyl]-formamidine]	0.02	330	0/5	–	–	–
COc1ccc(CN(CCN(C)C)c2ccccn2)cc1 [mepyramine]	–	–	–	–	–	no effect on gastric acid secretion
CC(C)NC=Nc1cccc(-c2csc(NC(=N)N)n2)c1 [14(c), N-Isopropyl-N'-[3-(2-guanidino-4-thiazolyl)-phenyl]-formamidine]	0.035	200	1/5	–	–	–
C#CCNC=Nc1cccc(-c2csc(NC(=N)N)n2)c1 [14(l), N-Propargyl-N'-[3-(2-guanidino-4-thiazolyl)-phenyl]-formamidine]	0.074	3100	0/5	–	–	–
CC(C)CNC=Nc1cccc(-c2csc(NC(=N)N)n2)c1 [14(f), N-Isobutyl-N'-[3-(2-guanidino-4-thiazolyl)-phenyl]-formamidine]	0.082	1200	0/5	–	–	–
CCCNC=Nc1cccc(-c2csc(NC(=N)N)n2)c1 [14(b), N-Propyl-N'-[3-(2-guanidino-4-thiazolyl)-phenyl]-formamidine]	0.019	280	0/5	–	–	–

Reference: patent US4548944A, “Guanidino-heterocyclyl-phenyl-amidines and salts thereof” (Istituto de Angeli S.p.A., priority 1982, dated 1985)
